The record followed here is patent US12605351B2, “Method for producing a composition comprising a 3-O-p-coumaroyl ester of tormentic acid from a plant cell culture, applications thereof as antiparasitic agent for the treatment of trypanosomiasis” (LUXEMBOURG INSTITUTE OF SCIENCE AND TECHNOLOGY, priority 2019, dated 2026).

Data set [1] concerns Human normal fibroblast cell line (WI-38). As to the kind of experiment: cells. Format: cell-based. The note with it: for cytotoxicity compared with parent oleanolic acid: in words. As for the experimental part: The cytotoxicity of tested compounds was evaluated in parallel on a Human normal fibroblast cell line (WI-38) cultivated in a humidified atmosphere with 5% CO2 at 37° C. Human normal fibroblast cell line (WI-38) was cultivated in DMEM medium (Life Technologies) containing 4 mM L-glutamine, 1 mM sodium pyruvate supplemented with 10% fetal bovine serum (Sigma) and penicillin-streptomycin (100 UI/mL).
(§1) Suramine (a commercial anti-trypanosomal drug) and camptothecin were used as positive controls. Stock solutions of compounds to be tested were prepared at a concentration of 10 mg/mL in DMSO. The solutions were further diluted in medium (described in 1.1) to give 0.1 mg/mL stock solutions. Extracts and compounds were tested in eight serial three-fold dilutions (final concentration range: 50-0.02 mg/L) in 96-well microliter plates. All tests were performed at least in duplicate.

The subject of data set [2] is Trypanosoma brucei brucei bloodstream forms (strain 427). Description: In vitro antitrypanosomal activity on Tbb BSF. Format: cell-based. The note with it: for SI (Selectivity Index): cytotoxicity in WI38 compared to Tbb; for antitrypanosomal activity compared with parent ursolic/oleanolic acid: in words. The procedure:
Antiparasitic activities were evaluated in vitro on Trypanosoma brucei brucei bloodstream forms (strain 427) (Tbb BSF). Tbb BSF were cultured in vitro at 37° C. with 5% CO2 in HMI9 medium containing 10% heat-inactivated fetal bovine serum, […] ([…]) and L-cysteine ([…]).
as §1, with “In vitro tests were performed as previously described by Hoet S. et al. (Planta Med., 2004, 70, 407-413, doi:10.1055/s-2004-818967). Suramine” for “Suramine”

The subject of data set [3] is Trypanosoma brucei brucei. As to the kind of experiment: In vivo anti-trypanosomal activity in infected mice. Set-up: species or system NMRI mice. The note with it: end of experiment day 19 post-infection. The source says: NMRI mice (6-8 weeks of age) obtained from Envigo Laboratories (The Netherlands) were used. All in vivo experiments performed were approved by the Ethical Committee for animals use at the Health Sciences Sector of the Catholic University of Louvain (2017/UCL/MD/017).
Mice were randomly divided into 6 mice per group for 3-O-cis/trans-p-coumaroyltormentic acid (mixture of cis and trans) and ursolic acid, 4 for positive control (Suramine) and 7 for the negative control, and were infested intraperitoneally with 10^4 Trypanosoma brucei brucei. All compounds were solubilized in the vehicle (water-tween 80-ethanol) and administered intraperitoneally. 3-O-cis/trans-p-coumaroyltormentic acid or ursolic acid (UA) were administered at 50 mg/kg at day 3 after infection with the parasite and then every day until day 7 post-infection. Suramine (0.5 mg/kg) was administered while vehicle was used as a negative control. From day 3 post infection, a drop of blood collected each day from mouse-tail was used to count parasitemia.

The mark [4] stands for this setting: cytotoxicity, WI-38 human fibroblasts, Table 3, read-out: WI38 (IC50 μM).
Where [5] appears, read: cytotoxicity, WI-38 human fibroblasts, Table 3, read-out: WI38 (IC50 μg/mL).
The mark [6] stands for this setting: Trypanosoma brucei, Tbb bloodstream forms strain 427, Table 3, read-out: Tbb (IC50 μM).
[7] abbreviates: Trypanosoma brucei, Tbb bloodstream forms strain 427, Table 3, read-out: Tbb (IC50 μg/mL).
The mark [8] stands for this setting: Table 4, same methods as example 3, read-out: Antitrypanosomal (Tbb) IC50 (μM, Mean ± Sd).
[9] abbreviates: Table 4, same methods as example 3, read-out: Cytotoxicity (WI38) IC50 (μM, Mean ± Sd).
Setting [10] is: Tbb bloodstream forms strain 427, Table 3.
The mark [11] stands for this setting: Tbb bloodstream forms strain 427, Table 3, read-out: Tbb (IC50 μM).
Setting [12] is: cytotoxicity, WI-38 human fibroblasts, Table 3.

Where two headings read alike, the source gives them in different places.

On to `CC[C@@]1(O)C(=O)OCc2c1cc1n(c2=O)Cc2cc3ccccc3nc2-1` [Camptothecin], for which the IC50 in data set [1] (setting [4]) was 0.12 ± 0.03 µM; in data set [1] (setting [5]), 0.04 ± 0.01 µg/mL.

Regarding `C[C@H]1[C@H](C)CC[C@]2(C(=O)O)CC[C@]3(C)C(=CC[C@@H]4[C@@]5(C)C[C@@H](O)[C@H](O)C(C)(C)[C@@H]5CC[C@]43C)[C@H]12` [Corosolic Acid], the IC50 was 7.3 ± 0.59 µM in data set [2] (setting [6]), 3.45 ± 0.23 µg/mL in data set [2] (setting [7]), 19.8 ± 5.22 µM in data set [1] (setting [4]) and 9.34 ± 2.47 µg/mL in data set [1] (setting [5]). Also, the “SI (Selectivity Index)” value in data set [2] amounted to 2.7.

For `C[C@H]1[C@H](C)CC[C@]2(C(=O)O)CC[C@]3(C)C(=CC[C@@H]4[C@@]5(C)CC[C@H](OC(=O)CCc6ccccc6)C(C)(C)C5CC[C@]43C)[C@H]12` (some centres unmarked) [Derivative (II-1), 3-O-hydrocinnamic ursolic acid], the IC50 in data set [2] (setting [8]) worked out at 2.22 ± 0.66 µM; in data set [1] it was 142 ± 3.45 µM.

As to `C[C@H]1[C@H](C)CC[C@]2(C(=O)O)CC[C@]3(C)C(=CC[C@@H]4[C@@]5(C)CC[C@H](OC(=O)/C=C/c6ccccc6)C(C)(C)C5CC[C@]43C)[C@H]12` (some centres unmarked) [Derivative (II-2), 3-O-cinnamic ursolic acid], the IC50 in data set [2] (setting [8]) was 68.2 ± 2.15 µM.

With `C[C@H]1[C@H](C)CC[C@]2(C(=O)O)CC[C@]3(C)C(=CC[C@@H]4[C@@]5(C)CC[C@H](OC(=O)CCc6ccc(F)cc6)C(C)(C)C5CC[C@]43C)[C@H]12` (some centres unmarked) [Derivative (II-3), 3-O-parafluorophenylpropionic ursolic acid], the IC50 was 2.45 ± 0.3 µM in data set [2] (setting [8]) and greater than 165 µM in data set [1].

`C[C@H]1[C@H](C)CC[C@]2(C(=O)O)CC[C@]3(C)C(=CC[C@@H]4[C@@]5(C)CC[C@H](OC(=O)CCc6cccc(F)c6)C(C)(C)C5CC[C@]43C)[C@H]12` (some centres unmarked) [Derivative (II-4), 3-O-metafluorophenylpropionic ursolic acid]: the IC50 is 2.67 ± 0.83 µM in data set [2] (setting [8]) and greater than 165 µM in data set [1].

Take `C[C@H]1[C@H](C)CC[C@]2(C(=O)O)CC[C@]3(C)C(=CC[C@@H]4[C@@]5(C)CC[C@H](OC(=O)CCc6ccccc6F)C(C)(C)C5CC[C@]43C)[C@H]12` (some centres unmarked) [Derivative (II-5), 3-O-orthofluorophenylpropionic ursolic acid]: the IC50 is 1.66 ± 0.38 µM in data set [2] (setting [8]) and greater than 132 µM in data set [1].

As to `CC1(C)CC[C@]2(C(=O)O)CC[C@]3(C)C(=CC[C@@H]4[C@@]5(C)CC[C@H](OC(=O)CCc6ccccc6)C(C)(C)C5CC[C@]43C)[C@@H]2C1` (some centres unmarked) [Derivative (II-6), 3-O-hydrocinnamic oleanolic acid], the IC50 in data set [2] (setting [8]) is 2.59 ± 0.87 µM; in data set [1] (setting [9]), 23.5 ± 6.56 µM. The “antitrypanosomal activity compared with parent ursolic/oleanolic acid” value in data set [2] is “significantly increased activity”. Besides, the “cytotoxicity compared with parent oleanolic acid” value in data set [1] is recorded as “significantly increased”.

As to `CC1(C)CC[C@]2(C(=O)O)CC[C@]3(C)C(=CC[C@@H]4[C@@]5(C)CC[C@H](OC(=O)/C=C/c6ccccc6)C(C)(C)C5CC[C@]43C)[C@@H]2C1` (some centres unmarked) [Derivative (II-7), 3-O-cinnamic oleanolic acid], the IC50 in data set [2] (setting [8]) came out at 6.31 ± 0.96 µM; in data set [1] (setting [9]), 22.3 ± 1.88 µM.

As for `CC1(C)CC[C@]2(C(=O)O)CC[C@]3(C)C(=CC[C@@H]4[C@@]5(C)CC[C@H](OC(=O)CCc6ccc(F)cc6)C(C)(C)C5CC[C@]43C)[C@@H]2C1` (some centres unmarked) [Derivative (II-8), 3-O-parafluorophenylpropionic oleanolic acid], the IC50 was 2.88 ± 1.11 µM in data set [2] (setting [8]) and 16.3 ± 3.26 µM in data set [1] (setting [9]). Moreover, the “antitrypanosomal activity compared with parent ursolic/oleanolic acid” value in data set [2] was “significantly increased activity”. In addition, the “cytotoxicity compared with parent oleanolic acid” value in data set [1] is given as “significantly increased”.

For `CC1(C)CC[C@]2(C(=O)O)CC[C@]3(C)C(=CC[C@@H]4[C@@]5(C)CC[C@H](OC(=O)CCc6cccc(F)c6)C(C)(C)C5CC[C@]43C)[C@@H]2C1` (some centres unmarked) [Derivative (II-9), 3-O-metafluorophenylpropionic oleanolic acid], the IC50 in data set [2] (setting [8]) turned out to be 1.72 ± 0.07 µM; in data set [1] (setting [9]), 20.7 ± 2.25 µM. The “antitrypanosomal activity compared with parent ursolic/oleanolic acid” value in data set [2] is reported as “significantly increased activity”. Also, the “cytotoxicity compared with parent oleanolic acid” value in data set [1] is given as “significantly increased”.

As for `CC1(C)CC[C@]2(C(=O)O)CC[C@]3(C)C(=CC[C@@H]4[C@@]5(C)CC[C@H](OC(=O)CCc6ccccc6F)C(C)(C)C5CC[C@]43C)[C@@H]2C1` (some centres unmarked) [Derivative (II-10), 3-O-orthofluorophenylpropionic oleanolic acid], the results for the IC50 in data set [2] (setting [8]) and in data set [1] (setting [9]) were 4.63 ± 0.28 µM and 18.6 ± 4.47 µM, respectively.

As to `CC1(C)CC[C@]2(C(=O)O)CC[C@]3(C)C(=CC[C@@H]4[C@@]5(C)C[C@@H](O)[C@H](O)C(C)(C)[C@@H]5CC[C@]43C)[C@@H]2C1` [Maslinic acid], the IC50 is 9.41 ± 1.35 µM in data set [2] (Trypanosoma brucei, read-out: Tbb (IC50 μM)); 4.45 ± 0.64 µg/mL in data set [2] (Trypanosoma brucei, read-out: Tbb (IC50 μg/mL)); 44.1 ± 8.4 µM in data set [1] (Homo sapiens, WI-38, read-out: WI38 (IC50 μM)); 20.9 ± 3.97 µg/mL in data set [1] (Homo sapiens, WI-38, read-out: WI38 (IC50 μg/mL)). The “SI (Selectivity Index)” value in data set [2] was found to be 4.6.

Consider `CC1(C)CC[C@]2(C(=O)O)CC[C@]3(C)C(=CC[C@@H]4[C@@]5(C)CC[C@H](O)C(C)(C)[C@@H]5CC[C@]43C)[C@@H]2C1` [Oleanolic acid], for which the IC50 turned out to be 5.83 ± 0.7 µM in data set [2] (setting [6]), 2.66 ± 0.32 µg/mL in data set [2] (setting [7]), 63.3 ± 0.74 µM in data set [1] (setting [4]) and 28.9 ± 0.34 µg/mL in data set [1] (setting [5]). Also, the “SI (Selectivity Index)” value in data set [2] was found to be 10.9.

`Cc1ccc(C(=O)Nc2ccc(S(=O)(=O)O)c3cc(S(=O)(=O)O)cc(S(=O)(=O)O)c23)cc1NC(=O)c1cccc(NC(=O)Nc2cccc(C(=O)Nc3cc(C(=O)Nc4ccc(S(=O)(=O)O)c5cc(S(=O)(=O)O)cc(S(=O)(=O)O)c45)ccc3C)c2)c1` [Suramine]: the IC50 in data set [2] (setting [6]) is 0.038 ± 0.008 µM; in data set [2] (setting [7]) it was 0.05 ± 0.01 µg/mL. For the same molecule, in data set [3], the “survival till the end of the experiment” value is given as “survive during all the experimental period”.

As for `C[C@@H]1CC[C@]2(C(=O)O)CC[C@]3(C)C(=CC[C@@H]4[C@@]5(C)C[C@@H](O)[C@H](O)C(C)(C)[C@@H]5CC[C@]43C)[C@@H]2[C@]1(C)O` [Tormentic acid], the “Tbb (IC50 μg/mL)” value in data set [2] (setting [10]) is 7.49 ± 0.33 µg/mL. Further, the values for the IC50 in data set [2] (setting [11]) and in data set [1] (setting [4]) were 15.3 ± 0.67 µM and 54.2 ± 0.67 µM, respectively. Besides, in data set [1] (setting [12]), the “WI38 (IC50 μg/mL)” value is 26.48 ± 0.33 µg/mL.

As for Annurcoic acid, the “Tbb (IC50 μg/mL)” value in data set [2] (setting [10]) was 27.39 ± 2.24 µg/mL. Also, the IC50 in data set [2] (setting [11]) was determined as 56.3 ± 4.6 µM; in data set [1] (setting [4]), 144 ± 14 µM. Also, in data set [1] (setting [12]), the “WI38 (IC50 μg/mL)” value was found to be 70.17 ± 6.82 µg/mL.
